# According to ChEMBL document CHEMBL1134165, “Anthraquinone-peptides as inhibitors of AP-1 transcription factor” (Bioorg Med Chem Lett, 2001):
# Tests used:
# Type in all cases: nucleic-acid assay
# Conditions in all cases: Bos taurus
# Nucleic Acid [1] = test: Delta Tm is the difference between the melting temperature of calf thymus DNA in the presence and absence of 2-peptide conjugate at a 10:1 ratio of DNA/drug
# Nucleic Acid [2] = test: Percent maximum loss of ethidium bromide (EtBr) fluorescence bound to DNA (ratio 1:3) in presence of 2-peptide conjugate
# Nucleic Acid [3] = test: Delta Tm is the difference between the melting temperature of calf thymus DNA in the presence and absence of 2-peptide conjugate at a 10:1ratio of DNA/drug
ΔTm (Nucleic Acid [1]),Quench (Nucleic Acid [2]) [%],ΔTm (Nucleic Acid [3]),Substance
6,–,–,H-AAKCRAA-OH
7.5,–,–,H-AKCRA-OH
5.5,5,–,H-AKCRDA-OH
10.3,–,–,H-AKCRDRA-OH
7.3,–,–,H-AKCRKA-OH
9,45,–,H-AKCRKRA-OH
5.5,–,–,H-AKSRA-OH
–,–,4.8,H-ARCKA-OH
